# Legend:
# [1] = Tmax in mouse at 5 mg/kg, iv and 10 mg/kg, po; format: ADME, organism-based; details: in vivo
# [2] = Oral bioavailability in mouse at 10 mg/kg; format: ADME, organism-based; details: in vivo
# [3] = Cmax in mouse at 5 mg/kg, iv and 10 mg/kg, po; format: ADME, organism-based; details: in vivo
# [4] = physchem; details: buffer, pH 7.4
# [5] = Volume of distribution in mouse at 5 mg/kg, iv and 10 mg/kg, po; format: ADME, organism-based; details: in vivo
# [6] = Ratio of drug level in brain to plasma in mouse at 5 mg/kg, iv after 1 hr; format: ADME, organism-based; parameters: dose 5 mg/kg, route intravenous
# [7] = Drug level in mouse brain at 5 mg/kg, iv after 1 hr; format: ADME, organism-based; parameters: dose 5 mg/kg, route intravenous; details: read-out: Drug uptake
# [8] = Ratio of drug level in brain to plasma in mouse at 5 mg/kg, iv after 4 hrs; format: ADME, organism-based; parameters: dose 5 mg/kg, route intravenous
# [9] = Drug level in mouse brain at 5 mg/kg, iv after 4 hrs; format: ADME, organism-based; parameters: dose 5 mg/kg, route intravenous; details: read-out: Drug uptake
# [10] = system: Caco-2; assay: Apparent permeability across human Caco-2 cells; format: ADME, cell-based
# [11] = AUC in mouse at 10 mg/kg, po; format: ADME, organism-based; parameters: dose 10 mg/kg, route oral; details: plasma
Tmax [1] [h],bioavailability [2] [%],Cmax [3] [ng/mL],logD [4],Vd [5] [L/kg],Kp at 1 h [6],concentration at 1 h [7] [ng/g],Kp at 4 h [8],concentration at 4 h [9] [ng/g],Papp [10] [×10⁻⁶ cm/s],AUC [11] [ng·h/mL],Structure (SMILES)
1,19,109,4,11,1.9,580,2.3,176,9,600,CC(C)[C@H](NC(=O)CCN(C)C)c1cc(Cl)ccc1N1CCN(C(=O)[C@H](C)Cc2ccc(Cl)cc2)CC1
0.5,21,165,2.4,19,0.6,231,1.1,126,1,813,CNCC(=O)N[C@H](c1cccc(F)c1N1CCN(C(=O)[C@H](C)Cc2ccc(Cl)cc2)CC1)C(C)C
6,58,762,3,3,0.1,79,0.1,77,2,9160,CC(C)[C@H](NC(=O)C1CN(C)C1)c1cc(Cl)ccc1N1CCN(C(=O)[C@H](C)Cc2ccc(Cl)cc2)CC1
0.5,13,88,4.3,16,0.7,,1.5,62,,232,CNCC(=O)N[C@H](c1cc(Cl)ccc1N1CCN(C(=O)[C@H](C)Cc2ccc(Cl)cc2)CC1)C(C)C

# The next lines start with the compound.
Structure (SMILES),Tmax [1] [h],bioavailability [2] [%],Cmax [3] [ng/mL],logD [4],Vd [5] [L/kg],Kp at 1 h [6],concentration at 1 h [7] [ng/g],Kp at 4 h [8],concentration at 4 h [9] [ng/g],Papp [10] [×10⁻⁶ cm/s],AUC [11] [ng·h/mL]
CNCC(=O)N[C@H](c1cccc(F)c1N1CCN(C(=O)[C@H](C)Cc2ccc(Cl)cc2OC)CC1)C(C)C,0.5,12,114,3.1,29,0.5,,1.7,107,2,374
CNCCN[C@H](c1cccc(F)c1N1CCN(C(=O)[C@H](C)Cc2ccc(Cl)cc2)CC1)C(C)C,0.5,47,166,2.6,52,0.4,53,1.2,62,0.4,1630
COc1cc(Cl)ccc1C[C@@H](C)C(=O)N1CCN(c2ccc(Cl)cc2[C@@H](NC(=O)C2CNC2)C(C)C)CC1,2,5.8,151,2.3,8.2,0.1,61,0.4,39,0.3,422
COc1cc(Cl)ccc1C[C@@H](C)C(=O)N1CCN(c2c(F)cccc2[C@@H](NC(=O)C2CNC2)C(C)C)CC1,2,5.6,104,2.6,10,0.1,51,0.4,32,0.2,336
CNCC(=O)N[C@H](c1cccc(F)c1N1CCN(C(=O)[C@H](C)Cc2ccc(Cl)cc2Cl)CC1)C(C)C,2,23,172,4.3,13,0.3,85,0.5,71,2,1010

# From ChEMBL document CHEMBL1150275, “Pharmacological and pharmacokinetic characterization of 2-piperazine-alpha-isopropyl benzylamine derivatives as melanocortin-4 receptor antagonists” (Bioorg Med Chem, 2008)
